Here are results for 25 compounds from ChEMBL document CHEMBL3352395, “Quantitative structure-activity relationship of antifungal activity of rosin derivatives” (2015).

One test relates to Trametes versicolor. Put plainly: Antifungal activity against Trametes versicolor after 3 to 5 days by paper disc method relative to 1227. The class given is functional.
The next test concerns Gloeophyllum trabeum. Put plainly: Antifungal activity against Gloeophyllum trabeum after 3 to 5 days by paper disc method relative to 1227. Type of test: functional.

For the compound `CC(C)C1=CC23CC[C@@H]4[C@](C)(CCC[C@@]4(C)C(=O)OCC(O)CN(C)C)[C@H]2CC1CC3C(=O)OCC(O)CN(C)C` (stereo not given in full), in the test on Trametes versicolor, the Ratio came to 46.67 and the “log(ratio)” value was 1.669. Also, in the test on Gloeophyllum trabeum, the Ratio is 59.09 and the “log(ratio)” value is reported as 1.7715.
As to `CC(C)C1=CC23CC[C@@H]4[C@](C)(CCC[C@@]4(C)C(=O)OCC(O)CCl)[C@H]2CC1CC3C(=O)OCC(O)CCl` (stereo not given in full), in the test on Trametes versicolor, the Ratio is reported as 26.67 and the “log(ratio)” value is reported as 1.426. Further, in the test with Gloeophyllum trabeum, the Ratio amounted to 36.36 and the “log(ratio)” value was found to be 1.5607.
On the same counts, the results for `CC(C)C1=CC2=CC[C@@H]3[C@](C)(CCC[C@@]3(C)C(=O)OCC(O)C[N+](C)(C)CC[N+](C)(C)CC(O)COC(=O)[C@]3(C)CCC[C@@]4(C)[C@H]3CC=C3C=C(C(C)C)CC[C@@H]34)[C@H]2CC1` (stereo not given in full) are 56.67, 1.7533, 72.73 and 1.8617.
`CC(C)C1=CC2=CC[C@@H]3[C@](C)(CCC[C@@]3(C)C(=O)OCC(O)CCl)[C@H]2CC1` (stereo not given in full): in the test with Trametes versicolor, the Ratio was found to be 26.67 and the “log(ratio)” value amounted to 1.426. In the test on Gloeophyllum trabeum, the Ratio is on record as 36.36 and the “log(ratio)” value stood at 1.5607.
The like results for `CCOC(=O)[C@]1(C)CCC[C@@]2(C)[C@H]1CC=C1C=C(C(C)C)CC[C@@H]12` were, in that order, 26.67, 1.426, 36.36 and 1.5607.
The like results for `CC(C)C1=CC23CC[C@@H]4[C@](C)(CCC[C@@]4(C)C(=O)OCC(O)C[N+](C)(C)C)[C@H]2CC1CC3C(=O)OCC(O)C[N+](C)(C)C` (stereo not given in full) were, in that order, 70, 1.8451, 81.82 and 1.9128.
On the same counts, the results for `CC(C)C1=CC2=CC[C@@H]3[C@](C)(CCC[C@@]3(C)C(=O)O)[C@H]2CC1` [ABIETIC ACID] are 26.67, 1.426, 36.36 and 1.5607.
Take `CC(C)c1ccc2c(c1)CC[C@H]1[C@](C)(C(=O)OCC(O)C[N+](C)(C)CC3CO3)CCC[C@]21C` (stereo not given in full): in the test with Trametes versicolor, the Ratio came to 50 and the “log(ratio)” value stood at 1.699. Also, in the test with Gloeophyllum trabeum, the Ratio was determined as 77.27 and the “log(ratio)” value amounted to 1.888.
For the compound `CC[N+](CC)(CC(O)COC(=O)[C@]1(C)CCC[C@@]2(C)[C@H]1CCC1CC(C(C)C)CC[C@@H]12)CC1CO1` (stereo not given in full), in the test with Trametes versicolor, the Ratio came out at 40 and the “log(ratio)” value was 1.6021. In addition, in the test with Gloeophyllum trabeum, the Ratio stood at 59.09 and the “log(ratio)” value was found to be 1.7715.
In the case of `CC(C)c1ccc2c(c1)CC[C@H]1[C@](C)(C(=O)O)CCC[C@]21C` [DEHYDROABIETIC ACID], in the test with Trametes versicolor, the Ratio was 30 and the “log(ratio)” value was 1.4771. In the test on Gloeophyllum trabeum, the Ratio is 40.91 and the “log(ratio)” value is listed as 1.6118.
On the same counts, the results for `CC(C)C1CC[C@H]2C(CC[C@@H]3[C@]2(C)CCC[C@@]3(C)C(=O)OCC(O)C[N+](C)(C)C)C1` (stereo not given in full) are 53.33, 1.727, 59.09 and 1.7715.
In the case of `CC(C)c1ccc2c(c1)CC[C@H]1[C@](C)(C(=O)OCC(O)CN(C)C)CCC[C@]21C` (stereo not given in full), in the test with Trametes versicolor, the Ratio turned out to be 43.33 and the “log(ratio)” value stood at 1.6368. In addition, in the test on Gloeophyllum trabeum, the Ratio is listed as 68.18 and the “log(ratio)” value worked out at 1.8337.
Take `CC(C)C1=CC23CC[C@@H]4[C@](C)(CCC[C@@]4(C)C(=O)O)[C@H]2CC1CC3C(=O)O` (stereo not given in full): in the test on Trametes versicolor, the Ratio was 26.67 and the “log(ratio)” value is reported as 1.426. In the test on Gloeophyllum trabeum, the Ratio was found to be 36.36 and the “log(ratio)” value came out at 1.5607.
Regarding `CC(C)C1=CC23CC[C@@H]4[C@](C)(CCC[C@@]4(C)C(=O)OCC(O)C[N+](C)(C)CC4CO4)[C@H]2CC1CC3C(=O)OCC(O)C[N+](C)(C)CC1CO1` (stereo not given in full), in the test with Trametes versicolor, the Ratio came to 60 and the “log(ratio)” value turned out to be 1.7782. Further, in the test on Gloeophyllum trabeum, the Ratio is recorded as 77.27 and the “log(ratio)” value amounted to 1.888.
Turning to `CC[N+](CC)(CC)CC(O)COC(=O)C1C2C[C@H]3C(C=C2C(C)C)(CC[C@@H]2[C@]3(C)CCC[C@@]2(C)C(=O)OCC(O)C[N+](CC)(CC)CC)C1C(=O)OCC(O)C[N+](CC)(CC)CC.[Cl-].[Cl-].[Cl-]` (stereo not given in full), in the test with Trametes versicolor, the Ratio was determined as 86.7 and the “inhibition zone (IZ)” value came to 26 mm. Moreover, in the test with Gloeophyllum trabeum, the Ratio was determined as 95.5 and the “inhibition zone (IZ)” value stood at 21 mm.
Take `CC(C)C1=CC2=CC[C@@H]3[C@](C)(CCC[C@@]3(C)C(=O)OCC(O)C[N+](C)(C)CC3CO3)[C@H]2CC1` (stereo not given in full): in the test with Trametes versicolor, the Ratio is reported as 46.67 and the “log(ratio)” value is 1.669. In the test with Gloeophyllum trabeum, the Ratio turned out to be 63.64 and the “log(ratio)” value was 1.8037.
For `CCN(CC)CC(O)COC(=O)[C@]1(C)CCC[C@@]2(C)[C@H]1CCC1CC(C(C)C)CC[C@@H]12` (stereo not given in full), in the test on Trametes versicolor, the Ratio is on record as 33.33 and the “log(ratio)” value is on record as 1.5229. Moreover, in the test on Gloeophyllum trabeum, the Ratio came to 50 and the “log(ratio)” value is 1.699.
`CC[N+](CC)(CC)CC(O)COC(=O)C1CC2C[C@H]3C1(C=C2C(C)C)CC[C@@H]1[C@]3(C)CCC[C@@]1(C)C(=O)OCC(O)C[N+](CC)(CC)CC` (stereo not given in full): the Ratio in the test with Trametes versicolor is recorded as 66.67; in the test with Gloeophyllum trabeum, 77.27. Besides, the “log(ratio)” value in the test on Trametes versicolor stood at 1.8239; in the test with Gloeophyllum trabeum it was 1.888.
Consider `CC[N+](CC)(CC(O)COC(=O)C1CC2C[C@H]3C1(C=C2C(C)C)CC[C@@H]1[C@]3(C)CCC[C@@]1(C)C(=O)OCC(O)C[N+](CC)(CC)CC1CO1)CC1CO1` (stereo not given in full), for which, in the test with Trametes versicolor, the Ratio is given as 63.33 and the “log(ratio)” value worked out at 1.8016. For the same compound, in the test on Gloeophyllum trabeum, the Ratio is reported as 77.27 and the “log(ratio)” value is listed as 1.888.
On the same counts, the results for `CC(C)C1CC[C@H]2C(CC[C@@H]3[C@]2(C)CCC[C@@]3(C)C(=O)OCC(O)CCl)C1` (stereo not given in full) are 26.67, 1.426, 36.36 and 1.5607.
As to `CC[N+](CC)(CC)CC(O)COC(=O)[C@]1(C)CCC[C@@]2(C)[C@H]1CCC1CC(C(C)C)CC[C@@H]12` (stereo not given in full), in the test on Trametes versicolor, the Ratio is 56.67 and the “log(ratio)” value came to 1.7533. For the same compound, in the test on Gloeophyllum trabeum, the Ratio was 59.09 and the “log(ratio)” value stood at 1.7715.
As to `CC(C)c1ccc2c(c1)CC[C@H]1[C@](C)(C(=O)OCC(O)C[N+](C)(C)C)CCC[C@]21C` (stereo not given in full), the results for the Ratio with Trametes versicolor and with Gloeophyllum trabeum were 60 and 81.82, respectively. In addition, the “log(ratio)” value turned out to be 1.7782 in the test with Trametes versicolor and 1.9128 in the test with Gloeophyllum trabeum.
With `CC[N+](CC)(CC)CC(O)COC(=O)[C@]1(C)CCC[C@]2(C)c3ccc(C(C)C)cc3CC[C@@H]12` (stereo not given in full), in the test on Trametes versicolor, the Ratio came out at 56.67 and the “log(ratio)” value was determined as 1.7533. Further, in the test on Gloeophyllum trabeum, the Ratio turned out to be 81.82 and the “log(ratio)” value turned out to be 1.9128.
The like results for `CC(C)C1CC[C@H]2C(CC[C@@H]3[C@]2(C)CCC[C@@]3(C)C(=O)O)C1` (stereo not given in full) were, in that order, 26.67, 1.426, 36.36 and 1.5607.
On to `CC(C)c1ccc2c(c1)CC[C@H]1[C@](C)(C(=O)OCC(O)CCl)CCC[C@]21C` (stereo not given in full), for which the Ratio in the test on Trametes versicolor came to 30; in the test on Gloeophyllum trabeum it was 40.91. The “log(ratio)” value with Trametes versicolor is given as 1.4771; in the test with Gloeophyllum trabeum it was 1.6118.
